Assay results published in US20100249373A1, “SCREENING METHODS” (priority 2007, published 2010).

How the values were obtained:
[1] = test system: lightly pigmented human melanocytes; experiment: Quantitative assessment of melanogenesis (melanin content) after siRNA knockdown; format: cell-based; details: replicated x3, FIG. 27
Protocol: FIG. 27—Quantitative assessment of melanogenesis. A decrease in post-treatment melanin content is noted for duplex (492) in lightly pigmented human melanocytes (replicated ×3).
To each pellet of melanin+cell debris obtained in section 2), 0.5 ml of diethyl ether:ethanol (1:1 ratio) was added. Eppendorfs were vortexed vigorously for 30 seconds and centrifuged at 13000 g for 5 minutes. The ether layer was carefully removed to waste and a further 0.5 ml was added. The tubes were agitated and centrifuged as before. The liquid phase was again removed and the melanin pellets were allowed to air dry at room temperature for 10 minutes. Melanin pellets were solubilised by the addition of 200 μl of 1M NaOH+10% DMSO and incubation (with occasional agitation) at 50° C. for 1 hour. 80 μl aliquots of each sample were transferred to a 96-well microtitre plate in duplicate. OD^450 of each sample was determined and the melanin content of each fraction was calculated from a synthetic melanin standard curve, prepared as described above. In treatment comparisons, results were expressed as μg melanin per μg protein.
Primary human melanocytes isolated from lightly pigmented or darkly pigmented neonatal foreskin were obtained from Cascade Biologics. Melanocyte Growth Medium (MGM) refers to Medium 254 (Cascade Biologics) supplemented with HMGS (Cascade Biologics). […]

NCKX5 = experiment: Western blot of NCKX5 protein after siRNA knockdown in human melanocytes; format: cell-based; details: 5 days after siRNA mediated knockdown; anti C-terminus pAb; FIG. 28
Protocol: FIG. 28—Western blot analysis of NCK5 after knockdown. Using Western blotting we have investigated NCKX5 protein expression 5 days after siRNA mediated knockdown (all 5 siRNA duplexes and controls were tested). Western blot was also used to evaluate the expression and processing (maturation) of tyrosinase (tyr) in the same samples. SDS-PAGE (10% PA for NCKX5, 4-12% for tyr, 5 μg protein/lane). A) Western blot for NCKX5: Detection via rabbit anti-NCKX5 pAb (anti C-terminus peptide). B) Western blot for tyr, via goat pAb (Santa Cruz). 1=No treatment, 2=scrambled siRNA control, 3-7=siRNA's 185, 260, 301, 492, 1110. […] These bands are absent in the samples where SLC24A5-specific duplexes were used (lanes 3-7). It is possible that the doublet represents the presence of alternate SLC24A5 splice variants.
Cultured Cells (trypsinised off of 6-well culture plates) were lysed on ice for 20 minutes in 1.5 ml eppendorfs using 100 μl per sample of 1% triton X-100 in dPBS containing protease inhibitor cocktail (Sigma-Aldrich, Poole, UK). Cell extracts were centrifuged (10 minutes at 13000 g) to separate melanin and cell debris from the solubilised protein. The protein concentration of each supernatant fraction was determined by BCA assay as described in A).
20 μg protein (as determined by BCA assay) was reconstituted into 20 μl of 1×LDS loading buffer (Invitrogen Ltd, Paisley, UK) containing 1× reducing agent (Invitrogen Ltd, Paisley, UK), heated to 40° C. for 30 minutes and loaded onto 10% Novex bis-tris acrylamide gels with 1×MOPS running buffer (Invitrogen Ltd, Paisley, UK). Kaleidoscope molecular weight markers (Bio-Rad Laboratories Ltd, Hemel Hempstead, UK) were run alongside samples for size determinations. Protein was transferred onto PVDF membrane by electrophoresis transfer, using a Bio-Rad mini-cell II trans-blotter and 1×Tris-Glycine transfer buffer (Invitrogen Ltd, Paisley, UK)+15% v/v methanol (100V for 1 hour).
Membranes containing transferred protein were “blocked” using 2% w/v skimmed milk protein (SMP) in PBS+0.05% tween20 (PBST) for 1 hour with gentle agitation. Peptide affinity purified rabbit polyclonal antibody (raised using a peptide equivalent to the C-terminus of NCKX5—GNNKIRGCGG) was diluted to 0.5 μg/ml using 2% SMP in PBST. The diluted antibody was incubated with the membrane for 2 hours at room temperature. The membrane was then rinsed with PBST (4×5 minutes washes). Peroxidase conjugated anti-rabbit IgG (Jackson ImmunoResearch Laboratories Inc. PA, USA) was diluted 1/4000 using 2% SMP in PBST and was incubated with the membranes for 1 hour. Finally, membranes were washed using 6×5 minute rinses with PBST. […]

| Substance | post-treatment melanin content [1] | NCKX5 Western blot bands of approx. 42 and 44 kDa (NCKX5) |
| --- | --- | --- |
| 492 (sense GCACCATCCTTGGATCTGCAATTTA; antisense CGTGGTAGGAACCTAGACGTTAAAT; chemistry not given here; one strand is listed 3' to 5') [compound 492] | decrease | absent |
| 260 (sense GAGCGCAGAGATGGAGGCATCATAA; antisense CTCGCGTCTCTACCTCCGTAGTATT; chemistry not given here; one strand is listed 3' to 5') [compound 260] |  | absent |
| 185 (sense AGGGCCACAGGAAATAGCACCCAAT; antisense TCCCGGTGTCCTTTATCGTGGGTTA; chemistry not given here; one strand is listed 3' to 5') [compound 185] |  | absent |
| 301 (sense CGTTTACATGTTCATGGCCATATCT; antisense GCAAATGTACAAGTACCGGTATAGA; chemistry not given here; one strand is listed 3' to 5') [compound 301] |  | absent |
